#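 In this assay, cells in 96-well plates receive the compound at five concentrations for 48 hours. Endpoints are linearly interpolated between the surrounding concentrations. GI50 marks 50% less growth. At the TGI there is no net growth.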
# Assays:
# Assay in all cases: inhibition of tumour cell growth, NCI panel, 48 h
# SNB-19 CNS = tested on: SNB-19 CNS
# OVCAR-4 ovarian = tested on: OVCAR-4 ovarian
# RXF 393 renal = tested on: RXF 393 renal
# OVCAR-3 ovarian = tested on: OVCAR-3 ovarian
# HCT-15 colon = tested on: HCT-15 colon
# TK-10 renal = tested on: TK-10 renal
# DU-145 prostate = tested on: DU-145 prostate
# HCT-116 colon = tested on: HCT-116 colon
# CAKI-1 renal = tested on: CAKI-1 renal
# LOX IMVI melanoma = tested on: LOX IMVI melanoma
# NCI-H460 lung = tested on: NCI-H460 lung
# OVCAR-5 ovarian = tested on: OVCAR-5 ovarian
# EKVX NSCLC = tested on: EKVX NSCLC
# MCF7 breast = tested on: MCF7 breast
# HOP-92 NSCLC = tested on: HOP-92 NSCLC
# SK-MEL-5 melanoma = tested on: SK-MEL-5 melanoma
# NCI-H226 lung = tested on: NCI-H226 lung
# SF-539 CNS = tested on: SF-539 CNS
# ACHN renal = tested on: ACHN renal
# OVCAR-8 ovarian = tested on: OVCAR-8 ovarian
# 786-0 renal = tested on: 786-0 renal
# MDA-MB-435 = tested on: MDA-MB-435
# A549 NSCLC = tested on: A549 NSCLC
# MALME-3M melanoma = tested on: MALME-3M melanoma
# RPMI-8226 leukemia = tested on: RPMI-8226 leukemia
# SW-620 colon = tested on: SW-620 colon
# UACC-62 melanoma = tested on: UACC-62 melanoma
# NCI-H23 lung = tested on: NCI-H23 lung
# UACC-257 melanoma = tested on: UACC-257 melanoma
# T-47D breast = tested on: T-47D breast
# IGROV1 ovarian = tested on: IGROV1 ovarian
# SF-268 CNS = tested on: SF-268 CNS
# NCI-H522 lung = tested on: NCI-H522 lung
# M14 melanoma = tested on: M14 melanoma
# SK-MEL-28 melanoma = tested on: SK-MEL-28 melanoma
# PC-3 prostate = tested on: PC-3 prostate
# A498 renal = tested on: A498 renal
# KM12 colon = tested on: KM12 colon
# HCC-2998 colon = tested on: HCC-2998 colon
# SK-OV-3 ovarian = tested on: SK-OV-3 ovarian
# NCI/ADR-RES ovarian = tested on: NCI/ADR-RES ovarian
# HS 578T breast = tested on: HS 578T breast
# MDA-MB-231 breast = tested on: MDA-MB-231 breast
# UO-31 renal = tested on: UO-31 renal
# BT-549 breast = tested on: BT-549 breast
# HT29 colon = tested on: HT29 colon
# SNB-75 CNS = tested on: SNB-75 CNS
# SK-MEL-2 melanoma = tested on: SK-MEL-2 melanoma
# SF-295 CNS = tested on: SF-295 CNS
# U251 CNS = tested on: U251 CNS
# COLO 205 colon = tested on: COLO 205 colon
# K-562 leukemia = tested on: K-562 leukemia
# MOLT-4 leukemia = tested on: MOLT-4 leukemia
# HOP-62 NSCLC = tested on: HOP-62 NSCLC
# CCRF-CEM leukemia = tested on: CCRF-CEM leukemia
# SN12C renal = tested on: SN12C renal
compound,measurement,setting,value
Cc1ccc(NC(=S)NNC(=S)Nc2ccc(C)cc2)cc1,GI50,SNB-19 CNS,8.36 µM
same,TGI,SNB-19 CNS,> 100 µM
same,GI50,OVCAR-4 ovarian,> 100 µM
same,TGI,OVCAR-4 ovarian,> 100 µM
same,GI50,RXF 393 renal,5.56 µM
same,TGI,RXF 393 renal,> 100 µM
same,GI50,OVCAR-3 ovarian,2.9 µM
same,TGI,OVCAR-3 ovarian,7.51 µM
same,GI50,HCT-15 colon,5.15 µM
same,TGI,HCT-15 colon,> 100 µM
same,GI50,TK-10 renal,18.2 µM
same,TGI,TK-10 renal,> 100 µM
same,GI50,DU-145 prostate,6.89 µM
same,TGI,DU-145 prostate,59.2 µM
same,GI50,HCT-116 colon,3.81 µM
same,TGI,HCT-116 colon,> 100 µM
same,GI50,CAKI-1 renal,3.66 µM
same,TGI,CAKI-1 renal,> 100 µM
same,GI50,LOX IMVI melanoma,6.13 µM
same,TGI,LOX IMVI melanoma,> 100 µM
same,GI50,NCI-H460 lung,3.89 µM
same,TGI,NCI-H460 lung,> 100 µM
same,GI50,OVCAR-5 ovarian,> 100 µM
same,TGI,OVCAR-5 ovarian,> 100 µM
same,GI50,EKVX NSCLC,17.9 µM
same,TGI,EKVX NSCLC,> 100 µM
same,GI50,MCF7 breast,3.75 µM
same,TGI,MCF7 breast,> 100 µM
same,GI50,HOP-92 NSCLC,6.43 µM
same,TGI,HOP-92 NSCLC,> 100 µM
same,GI50,SK-MEL-5 melanoma,4.36 µM
same,TGI,SK-MEL-5 melanoma,> 100 µM
same,GI50,NCI-H226 lung,> 100 µM
same,TGI,NCI-H226 lung,> 100 µM
same,GI50,SF-539 CNS,5.46 µM
same,TGI,SF-539 CNS,> 100 µM
same,GI50,ACHN renal,9.7 µM
same,TGI,ACHN renal,> 100 µM
same,GI50,OVCAR-8 ovarian,7.95 µM
same,TGI,OVCAR-8 ovarian,> 100 µM
same,GI50,786-0 renal,51.3 µM
same,TGI,786-0 renal,> 100 µM
same,GI50,MDA-MB-435,2.5 µM
same,TGI,MDA-MB-435,> 100 µM
same,GI50,A549 NSCLC,6.03 µM
same,TGI,A549 NSCLC,> 100 µM
same,GI50,MALME-3M melanoma,7.07 µM
same,TGI,MALME-3M melanoma,> 100 µM
same,GI50,RPMI-8226 leukemia,4.46 µM
same,TGI,RPMI-8226 leukemia,65.3 µM
same,GI50,SW-620 colon,3.81 µM
same,TGI,SW-620 colon,> 100 µM
same,GI50,UACC-62 melanoma,5.17 µM
same,TGI,UACC-62 melanoma,> 100 µM
same,GI50,NCI-H23 lung,5.98 µM
same,TGI,NCI-H23 lung,> 100 µM
same,GI50,UACC-257 melanoma,7.13 µM
same,TGI,UACC-257 melanoma,> 100 µM
same,GI50,T-47D breast,14.4 µM
same,TGI,T-47D breast,> 100 µM
same,GI50,IGROV1 ovarian,6.24 µM
same,TGI,IGROV1 ovarian,> 100 µM
same,GI50,SF-268 CNS,6.05 µM
same,TGI,SF-268 CNS,> 100 µM
same,GI50,NCI-H522 lung,2.03 µM
same,TGI,NCI-H522 lung,5.83 µM
same,GI50,M14 melanoma,3.54 µM
same,TGI,M14 melanoma,> 100 µM
same,GI50,SK-MEL-28 melanoma,8.39 µM
same,TGI,SK-MEL-28 melanoma,> 100 µM
same,GI50,PC-3 prostate,10.2 µM
same,TGI,PC-3 prostate,> 100 µM
same,GI50,A498 renal,2.96 µM
same,TGI,A498 renal,> 100 µM
same,GI50,KM12 colon,3.63 µM
same,TGI,KM12 colon,> 100 µM
same,GI50,HCC-2998 colon,15.5 µM
same,TGI,HCC-2998 colon,> 100 µM
same,GI50,SK-OV-3 ovarian,17.3 µM
same,TGI,SK-OV-3 ovarian,> 100 µM
same,GI50,NCI/ADR-RES ovarian,2.55 µM
same,TGI,NCI/ADR-RES ovarian,8.52 µM
same,GI50,HS 578T breast,4.6 µM
same,TGI,HS 578T breast,> 100 µM
same,GI50,MDA-MB-231 breast,65.4 µM
same,TGI,MDA-MB-231 breast,> 100 µM
same,GI50,UO-31 renal,11.6 µM
same,TGI,UO-31 renal,> 100 µM
same,GI50,BT-549 breast,> 100 µM
same,TGI,BT-549 breast,> 100 µM
same,GI50,HT29 colon,3.61 µM
same,TGI,HT29 colon,> 100 µM
same,GI50,SNB-75 CNS,3.39 µM
same,TGI,SNB-75 CNS,67.3 µM
same,GI50,SK-MEL-2 melanoma,2.66 µM
same,TGI,SK-MEL-2 melanoma,8.68 µM
same,GI50,SF-295 CNS,3.16 µM
same,TGI,SF-295 CNS,> 100 µM
same,GI50,U251 CNS,5.16 µM
same,TGI,U251 CNS,> 100 µM
same,GI50,COLO 205 colon,7.6 µM
same,TGI,COLO 205 colon,50 µM
COc1cc(/C=C2\CC3C4CCC5=CC(=O)CC[C@]5(C)C4CC[C@]3(C)C2=O)ccc1OCCN1CCCC1 (some centres undefined),GI50,SNB-19 CNS,4.16 µM
same,TGI,SNB-19 CNS,18.8 µM
same,GI50,OVCAR-4 ovarian,3.94 µM
same,TGI,OVCAR-4 ovarian,15.1 µM
same,GI50,RXF 393 renal,2.24 µM
same,TGI,RXF 393 renal,5.41 µM
same,GI50,K-562 leukemia,0.489 µM
same,TGI,K-562 leukemia,1.53 µM
same,GI50,OVCAR-3 ovarian,2.37 µM
same,TGI,OVCAR-3 ovarian,6.01 µM
same,GI50,HCT-15 colon,2.76 µM
same,TGI,HCT-15 colon,10.7 µM
same,GI50,TK-10 renal,1.51 µM
same,TGI,TK-10 renal,3.92 µM
same,GI50,DU-145 prostate,3.76 µM
same,TGI,DU-145 prostate,16.8 µM
same,GI50,HCT-116 colon,1.41 µM
same,TGI,HCT-116 colon,3.79 µM
same,GI50,CAKI-1 renal,2.89 µM
same,TGI,CAKI-1 renal,10.5 µM
same,GI50,LOX IMVI melanoma,2.01 µM
same,TGI,LOX IMVI melanoma,3.97 µM
same,GI50,NCI-H460 lung,3.57 µM
same,TGI,NCI-H460 lung,> 37.5 µM
same,GI50,MOLT-4 leukemia,0.689 µM
same,TGI,MOLT-4 leukemia,1.84 µM
same,GI50,OVCAR-5 ovarian,2.64 µM
same,TGI,OVCAR-5 ovarian,8.26 µM
same,GI50,EKVX NSCLC,3.98 µM
same,TGI,EKVX NSCLC,17.3 µM
same,GI50,MCF7 breast,4.07 µM
same,TGI,MCF7 breast,> 45.3 µM
same,GI50,HOP-92 NSCLC,1.41 µM
same,TGI,HOP-92 NSCLC,3.87 µM
same,GI50,SK-MEL-5 melanoma,1.8 µM
same,TGI,SK-MEL-5 melanoma,3.5 µM
same,GI50,NCI-H226 lung,1.81 µM
same,TGI,NCI-H226 lung,7.08 µM
same,GI50,SF-539 CNS,1.78 µM
same,TGI,SF-539 CNS,3.67 µM
same,GI50,ACHN renal,2.94 µM
same,TGI,ACHN renal,9.16 µM
same,GI50,OVCAR-8 ovarian,3.4 µM
same,TGI,OVCAR-8 ovarian,13.5 µM
same,GI50,HOP-62 NSCLC,2.33 µM
same,TGI,HOP-62 NSCLC,6.11 µM
same,GI50,786-0 renal,1.22 µM
same,TGI,786-0 renal,2.91 µM
same,GI50,MDA-MB-435,2.15 µM
same,TGI,MDA-MB-435,4.86 µM
same,GI50,A549 NSCLC,4.45 µM
same,TGI,A549 NSCLC,> 100 µM
same,GI50,MALME-3M melanoma,0.645 µM
same,TGI,MALME-3M melanoma,1.93 µM
same,GI50,RPMI-8226 leukemia,0.202 µM
same,TGI,RPMI-8226 leukemia,0.889 µM
same,GI50,SW-620 colon,3.09 µM
same,TGI,SW-620 colon,11.5 µM
same,GI50,UACC-62 melanoma,2.06 µM
same,TGI,UACC-62 melanoma,5.02 µM
same,GI50,NCI-H23 lung,3.31 µM
same,TGI,NCI-H23 lung,13.4 µM
same,GI50,UACC-257 melanoma,2.5 µM
same,TGI,UACC-257 melanoma,6.15 µM
same,GI50,T-47D breast,3.29 µM
same,TGI,T-47D breast,9.21 µM
same,GI50,IGROV1 ovarian,2.33 µM
same,TGI,IGROV1 ovarian,5.73 µM
same,GI50,SF-268 CNS,3.41 µM
same,TGI,SF-268 CNS,19.4 µM
same,GI50,NCI-H522 lung,2.33 µM
same,TGI,NCI-H522 lung,5.45 µM
same,GI50,M14 melanoma,1.67 µM
same,TGI,M14 melanoma,3.39 µM
same,GI50,SK-MEL-28 melanoma,2.7 µM
same,TGI,SK-MEL-28 melanoma,8.11 µM
same,GI50,PC-3 prostate,2.35 µM
same,TGI,PC-3 prostate,8.31 µM
same,GI50,A498 renal,5.05 µM
same,TGI,A498 renal,10.6 µM
same,GI50,KM12 colon,1.92 µM
same,TGI,KM12 colon,4.77 µM
same,GI50,HCC-2998 colon,1.85 µM
same,TGI,HCC-2998 colon,3.89 µM
same,GI50,SK-OV-3 ovarian,4.56 µM
same,TGI,SK-OV-3 ovarian,16.8 µM
same,GI50,NCI/ADR-RES ovarian,2.45 µM
same,TGI,NCI/ADR-RES ovarian,6.51 µM
same,GI50,HS 578T breast,3.22 µM
same,TGI,HS 578T breast,8.87 µM
same,GI50,MDA-MB-231 breast,2.01 µM
same,TGI,MDA-MB-231 breast,5.1 µM
same,GI50,UO-31 renal,1.68 µM
same,TGI,UO-31 renal,3.38 µM
same,GI50,BT-549 breast,8.44 µM
same,TGI,BT-549 breast,23.3 µM
same,GI50,HT29 colon,2.5 µM
same,TGI,HT29 colon,> 28.5 µM
same,GI50,SNB-75 CNS,3.47 µM
same,TGI,SNB-75 CNS,11.1 µM
same,GI50,SK-MEL-2 melanoma,4.21 µM
same,TGI,SK-MEL-2 melanoma,14.8 µM
same,GI50,CCRF-CEM leukemia,1.12 µM
same,TGI,CCRF-CEM leukemia,4.35 µM
same,GI50,SF-295 CNS,2.62 µM
same,TGI,SF-295 CNS,7.58 µM
same,GI50,U251 CNS,2.86 µM
same,TGI,U251 CNS,10.1 µM
same,GI50,SN12C renal,3.28 µM
same,TGI,SN12C renal,9.18 µM
same,GI50,COLO 205 colon,2.04 µM
same,TGI,COLO 205 colon,4.91 µM
